Measured values: PubChem BioAssay (NCI)
Values joined by “and” are separate entries in the source; they are usually repeats but may differ in a detail not shown here. Equal entries are not always repeated.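 Briefly, cells in 96-well plates were exposed to five compound concentrations for 48 h, and endpoints were estimated by linear interpolation. GI50 = concentration required for 50% inhibition of growth. TGI is the concentration that stops growth completely.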

Columns and labels:
Assay in all cases: NCI-60 cell line screen, 48 h
RPMI-8226 leukemia = tested on: RPMI-8226 leukemia
OVCAR-3 ovarian = tested on: OVCAR-3 ovarian
NCI-H226 lung = tested on: NCI-H226 lung
HT29 colon = tested on: HT29 colon
EKVX NSCLC = tested on: EKVX NSCLC
OVCAR-4 ovarian = tested on: OVCAR-4 ovarian
OVCAR-8 ovarian = tested on: OVCAR-8 ovarian
DU-145 prostate = tested on: DU-145 prostate
M14 melanoma = tested on: M14 melanoma
A549 NSCLC = tested on: A549 NSCLC

Structure (SMILES)	GI50 (RPMI-8226 leukemia)	TGI (RPMI-8226 leukemia) [µM]	GI50 (OVCAR-3 ovarian)	TGI (OVCAR-3 ovarian)	GI50 (NCI-H226 lung)	TGI (NCI-H226 lung) [µM]	GI50 (HT29 colon) [µM]	TGI (HT29 colon) [µM]	GI50 (EKVX NSCLC) [µM]	TGI (EKVX NSCLC) [µM]	GI50 (OVCAR-4 ovarian) [µM]	TGI (OVCAR-4 ovarian) [µM]	GI50 (OVCAR-8 ovarian)	TGI (OVCAR-8 ovarian)	GI50 (DU-145 prostate) [µM]	TGI (DU-145 prostate) [µM]	GI50 (M14 melanoma) [µM]	TGI (M14 melanoma) [µM]	GI50 (A549 NSCLC)	TGI (A549 NSCLC) [µM]
CCN(CC)CCCN1C(=O)c2c(c(C)c3c(oc4cc(O)ccc43)c2C)C1=O	1.93 µM	4.17	1.79 µM	3.27 µM	4.47 µM	27.4	1.39	2.85	1.51	3.16	1.84	3.55	1.78 µM	3.61 µM	1.83	3.32	1.8	3.28	1.85 µM	3.54
Cc1c(N(C(=O)c2cc(-c3cc(Cl)ccc3C(=O)N3Cc4ccccc4C[C@H]3CN3CCOCC3)n(C)c2C)c2ccc(O)cc2)cc(C#N)n1C	7.32 µM	> 100	11 µM	> 100 µM	14.1 µM	44.4	18.7	> 100	48.4	> 100	11.4	> 100	55.8 µM	> 100 µM	32.5	> 100	21.8	> 100	27.6 µM	> 100
OCC1OC(O)C(N=Cc2ccc3c(c2)OCO3)C(O)C1O (stereo not drawn)		> 100		> 100 µM		> 100		> 100		> 100		> 100		> 100 µM		> 100		> 100		> 100
CC1=Cc2cc3[n-]c(cc4nc(cc5[n-]c(cc1n2)c(C)c5CCC(=O)O)C(CCC(=O)O)=C4C)cc3C.[Cu+2]	> 1 µM and 53.9 µM	> 80	> 1 µM and 26.5 µM	> 1 µM and 92.3 µM	> 1 µM and 62 µM	> 87.2	> 100	> 100	> 66.4	> 100	> 100	> 100	> 1 µM and 19.6 µM	> 1 µM and 54.7 µM	23.5	85.1	> 79.1	> 100	> 1 µM and 70.9 µM	> 100
CCOC(=O)c1ccc2[nH]c(Cc3[nH]c4ccc(C(=O)OCC)cc4c3C)c(C)c2c1	2.66 µM	35.6	3.06 µM	17.6 µM	4.7 µM	23.2	0.821	8.2	5.09	26.4	7.87	47.7	1.21 µM	11.7 µM	3.37	17.5	5.98	34.1	1.05 µM	5.87
COc1cc(/C=C/C(=O)CC(=O)/C=C/c2ccc(OC(=O)CCNC34CC5CC(CC(C5)C3)C4)c(OC)c2)ccc1OC(=O)CCNC12CC3CC(CC(C3)C1)C2	2.1 µM	6.01	4.09 µM	21.9 µM	11.8 µM	30.5	1.75	3.2	4.41	12.9	11	> 100	3.71 µM	13.4 µM	1.4	3.13	3.48	14.1	10.3 µM	28.5
C=C1C(=O)O[C@H]2[C@H]1CC/C(COC(=O)NCCc1c[nH]c3ccccc13)=C\CC[C@@]1(C)O[C@@H]21	0.826 µM	4.26	1.04 µM	2.31 µM	1.8 µM	3.39	1.55	3.78	1.51	3.57	2.96	13.1	1.86 µM	5.21 µM	1.19	2.68	1.44	3.65	10.7 µM	25.4
Cc1ccc(-c2nc3nc(-c4ccc(Cl)cc4)nc(N4CCCNCC4)c3o2)cc1	2.11 µM	4.74	1.94 µM	3.81 µM	1.78 µM	3.87	1.93	3.94	1.75	3.27	1.84	3.39	2.15 µM	4.77 µM	1.95	3.59	1.75	3.34	1.91 µM	3.83
C[C@]12CC[C@H]3[C@@H](CC=C4C[C@@H](O)CC[C@@]43C)[C@@H]1C/C(=C\c1cccc(OCCCn3ccnc3)c1)[C@@H]2O	5.32 µM	25		29.9 µM	16.1 µM	43.4	3.85	18.1	13.5	33.9	12.8	32.7	14.4 µM	43.1 µM	14.2	28.3	13.4	35.7	12.9 µM	28.5
CN(C)c1ccc2[nH]c(O)c(C=Nc3ccc(S(N)(=O)=O)cc3)c2c1	> 25 µM	> 25	> 25 µM	> 25 µM	> 25 µM	> 25	> 25	> 25	> 25	> 25	> 25	> 25	> 25 µM	> 25 µM	> 25	> 25	> 25	> 25	> 25 µM	> 25
C=C1C(=O)O[C@H]2[C@H]1CC/C(COC(=O)N[C@@H](Cc1c[nH]c3ccccc13)C(=O)OC)=C\CC[C@@]1(C)O[C@@H]21	0.527 µM	2.71	1.24 µM	2.69 µM	15.4 µM	33.5	1.44	3.04	1.78	4.43	2.03	5.62	2.62 µM	10.3 µM	1.08	2.44	1.59	3.35	9.94 µM	24.3
CCC[CH2][Sn]([CH2]CCC)([O]C(=O)c1cccc(F)c1F)[O][Sn]([CH2]CCC)([CH2]CCC)[O]C(=O)c1cccc(F)c1F	0.0288 µM		0.493 µM	1.64 µM	0.317 µM	0.851	0.812	2.07	0.675	2.04	0.459	1.28	0.285 µM	1.16 µM	0.457	1.63	0.274	0.891	1.78 µM	3.44
